Source: patent US20220175761A1, “BI-LIGAND DRUG CONJUGATE AND USE THEREOF” (COHERENT BIOPHARMA (SUZHOU), LIMITED, priority 2019, published 2022)
Square brackets hold non-standard residues; d marks the D form. Peptide text beside a SMILES is read from it. * marks the point of attachment. Dolaproine = CO[C@@H]([C@@H]1CCCN1)[C@@H](C)C(=O)O; Dil = CC[C@H](C)[C@H](NC)[C@@H](CC(=O)O)OC; X1 = C[C@@H](N*)[C@@H](O)c1ccccc1; NMeV = CN[C@H](C(=O)O)C(C)C

Columns and labels:
[1] = system: lung cancer PDX model LU1206; assay: Effectiveness in lung cancer LU1206 model (PDX model); type: in vivo, BALB/c nude mice
Procedure: BALB/c nude mice bore tumors subcutaneously and, when the tumor volume reached about 150 mm^3, were grouped into: low-dose, medium-dose and high-dose test sample groups, a small molecule MMAE control group, a targeting polypeptide 20BK-SM09 control group, and a blank control group (a total of 6 groups, and 8 mice per group); the mice were administered on day 1, day 8 and day 15 after the grouping; and the observation was continued for 14 days after the last administration.

[2] = system: SK-BR-3 (human breast cancer cells); assay: Inhibition of cell line proliferation, CCK8; type: cell-based; settings: SK-BR-3, 68-72 hours, CCK8
Procedure: Experimental operations: LNCaP, SK-BR-3, NCI-H226, CFPAC-1 and PANC-1 cells were prepared in advance and counted; with a culture medium (IMDM+10% FBS+1× L-Glutamine+1×P/S), the cells LNCaP, SK-BR-3 and CFPAC-1 were diluted to 4×10^4 cells/ml, NCI-H226 was diluted to 2.0×10^4 cells/ml and PANC-1 was diluted to 3.0×10^4 cells/ml; the diluted cell solution was plated in 96-well plates at 100 μl/well; and negative control and blank control wells were set on each plate. After adherent cell culture overnight, the diluted samples to be tested were added at 50 μl/well. The plates were placed in an incubator at 37° C., 5% CO2 and cultured for 68-72 hours. To each well, 15 μl (10% of the liquid volume in a well) of a color developing solution from CCK8 was added; and the plates were incubated at 37° C. for 45-70 minutes and each plate was read at 450 nm on a microplate reader. The data was edited using SoftMax Pro and a 4-P fitting curve was plotted.
Experimental Operations: LNCaP, SK-BR-3, MDA-MB-468 and CFPAC-1 cells were prepared in advance and counted; with a culture medium (IMDM+10% FBS+1× L-Glutamine+1×P/S), the cells LNCaP, SK-BR-3, MDA-MB-468 and CFPAC-1 were diluted to 4×10^4 cells/ml; the diluted cell solution was plated in 96-well plates at 100 µl/well; and negative control and blank control wells were set on each plate. After adherent cell culture overnight, the diluted samples to be tested were added at 50 μl/well. The plates were placed in an incubator at 37° C., 5% CO2 and cultured for 68-72 hours. To each well, 15 μl (10% of the liquid volume in a well) of a color developing solution from CCK8 was added; and the plates were incubated at 37° C. for 45-70 minutes and each plate was read at 450 nm on a microplate reader. The data was edited using SoftMax Pro and a 4-P fitting curve was plotted.

[3] = target: T1, FOLH1 (Homo sapiens, UniProt Q04609); assay: Gator binding affinity to FOLH1 (SA probe with Biotin-CB-20BK, analyte FOLH1); parameters: purchased Sino Biologicals 15877-H07H
Procedure: SA probe (Probe Life, Cat #: 1906018)
Buffer: Q buffer (Probe Life), 10 mM, pH=7.4
(2) The experiment was carried out according to Gator™ (Probe Life) instruction manual to determine the binding affinity of Biotin-CB-20BK to FOLH1. In the experiment, SA probe binds to ligand Biotin-CB-20BK, and the analyte is FOLH1 (Sino Biologicals, Cat #: 15877-H07H).
Target sequence in this assay (Q04609 44-750 limits assumed): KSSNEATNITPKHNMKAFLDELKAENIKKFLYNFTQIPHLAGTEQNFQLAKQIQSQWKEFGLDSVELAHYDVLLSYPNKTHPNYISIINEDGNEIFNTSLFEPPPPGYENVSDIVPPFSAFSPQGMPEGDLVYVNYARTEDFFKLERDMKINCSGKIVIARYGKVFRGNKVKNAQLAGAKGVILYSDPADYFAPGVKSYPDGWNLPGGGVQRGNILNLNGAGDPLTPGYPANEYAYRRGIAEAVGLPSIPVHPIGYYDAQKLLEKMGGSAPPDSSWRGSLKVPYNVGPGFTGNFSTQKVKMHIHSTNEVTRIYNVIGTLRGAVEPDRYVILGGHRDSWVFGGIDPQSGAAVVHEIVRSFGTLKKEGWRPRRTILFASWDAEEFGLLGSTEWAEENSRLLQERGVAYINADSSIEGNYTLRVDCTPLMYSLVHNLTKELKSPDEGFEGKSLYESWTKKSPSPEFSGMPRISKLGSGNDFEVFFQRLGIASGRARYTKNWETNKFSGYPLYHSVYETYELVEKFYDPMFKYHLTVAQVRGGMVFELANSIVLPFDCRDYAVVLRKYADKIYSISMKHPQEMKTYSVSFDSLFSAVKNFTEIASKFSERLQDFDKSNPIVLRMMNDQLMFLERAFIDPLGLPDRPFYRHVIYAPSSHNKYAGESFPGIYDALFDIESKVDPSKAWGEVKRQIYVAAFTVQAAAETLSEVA

[4] = target: T1, FOLH1; assay: BIAcore T200: binding of FOLH1 to compound-FOLR1 complex; parameters: purchased Sino Biologicals (FOLH1); R&D System (FOLR1) 15877-H07H (FOLH1); 5646-FR (FOLR1)
Text: CM5 chip was conjugated with a ligand: FOLR1 (R&D System, Cat #: 5646-FR)
Analyte: CB-20BK, FA-MMAE and FOLH1 (Sino Biologicals, Cat #: 15877-H07H)
According to BIAcore T200 (GE) operating manual, FOLR1 was conjugated to the CM5 chip; CB-20BK or FA-MMAE was loaded first, and then FOLH1 was loaded; and the binding of FOLH1 to the CB-20BK-FOLR1 complex was detected.
Target sequence in this assay (Q04609 44-750 limits assumed): as above
Target sequence in this assay (P15328 25-233 partner limits assumed): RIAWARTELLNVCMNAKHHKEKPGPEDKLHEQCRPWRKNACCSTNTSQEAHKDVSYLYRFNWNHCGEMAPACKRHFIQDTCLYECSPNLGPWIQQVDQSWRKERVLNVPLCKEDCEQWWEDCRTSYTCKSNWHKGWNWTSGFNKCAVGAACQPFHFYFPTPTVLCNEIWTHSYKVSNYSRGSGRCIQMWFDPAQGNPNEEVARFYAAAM

[5] = 0.375 mg/kg on day 1, 8, 15, euthanized on day 29

| Structure (SMILES) | tumor growth inhibition effect (in words) ([1]; 0.375 mg/kg) | Tumor volume ([1]; 0.375 mg/kg on day 1, 8, 15) [mm^3] | Tumor volume Tumor growth inhibition rate ([1]; 0.375 mg/kg on day 1, 8, 15) [%] | Tumor weight [1, 5] [mg] | Tumor weight Inhibition ratio [1, 5] [%] | IC50 [2] [nM] | binding to FOLH1 (in words) [3] | Binding of compound-FOLR1 complex to FOLH1 solution ([4]; FOLH1 concentration 0.0625 μM) [RU] | Binding of compound-FOLR1 complex to FOLH1 solution ([4]; FOLH1 concentration 0.125 μM) [RU] | Binding of compound-FOLR1 complex to FOLH1 solution ([4]; FOLH1 concentration 0.25 μM) [RU] | Binding of compound-FOLR1 complex to FOLH1 solution ([4]; FOLH1 concentration 0.5 μM) [RU] | amount of FOLH1 bound to compound-FOLR1 complex (in words) ([4]; FOLH1 solution at a high concentration) |
| --- | --- | --- | --- | --- | --- | --- | --- | --- | --- | --- | --- | --- |
| CC[C@H](C)[C@@H]([C@@H](CC(=O)N1CCC[C@H]1[C@H](OC)[C@@H](C)C(=O)N[C@H](C)[C@@H](O)c1ccccc1)OC)N(C)C(=O)[C@@H](NC(=O)[C@@H](NC)C(C)C)C(C)C [MMAE, monomethyl auristatin E] (H-[NMeV]V[Dil][Dolaproine]-X1) | clear tumor growth inhibition effect | 778.32 | 36.03 | 437.73 | 54.53 | 2 | – | – | – | – | – | – |
| CC[C@H](C)[C@@H]([C@@H](CC(=O)N1CCC[C@H]1[C@H](OC)[C@@H](C)C(=O)N[C@H](C)[C@@H](O)c1ccccc1)OC)N(C)C(=O)[C@@H](NC(=O)[C@H](C(C)C)N(C)C(=O)OCc1ccc(NC(=O)C(CCCNC(N)=O)NC(=O)[C@@H](NC(=O)CCCCCN2C(=O)CC(SC[C@H](NC(=O)[C@H](CCCCN)NC(=O)[C@H](CC(=O)O)NC(=O)[C@H](CC(=O)O)NC(=O)Cc3ccc(CNC(=O)NCCCC[C@H](NC(=O)N[C@@H](CCC(=O)O)C(=O)O)C(=O)O)cc3)C(=O)N[C@@H](CCCCNC(=O)CC[C@H](NC(=O)c3ccc(NCc4cnc5[nH]c(N)nc(=O)c5n4)cc3)C(=O)O)C(N)=O)C2=O)C(C)C)cc1)C(C)C (stereo partly drawn) [CB-20BK] | – | – | – | – | – | – | binds to FOLH1 with a good affinity | −0.9 | 4.6 | 14.1 | 23.9 | significantly higher than that bound to an FA-MMAE-FOLR1 complex |
